Results as given in US20240116985A1, “STAPLED PEPTIDES AND METHODS THEREOF” (priority 2020, published 2024).
Values after ≈ are worked out from the molar mass of the structure shown. Like-named read-outs stand apart in the source and are kept apart here.

Tests used:
Solubility in PBS = assay type: physicochemical
Method in brief: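 HPLC quantitation of peptide remaining in the PBS supernatant after ultracentrifugation, referenced to a 50 μM solution in DMSO.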

[1] = target: T1, full-length beta-Catenin (Uniprot ID P35222) (Homo sapiens, UniProt P35222); test: Fluorescence polarization IC50 (beta-catenin / 5FAM-TCF4 10-53 competition); assay type: binding
T1 construct: 10 nM full-length beta-Catenin (Uniprot ID P35222)
T1 sequence (P35222 1-781): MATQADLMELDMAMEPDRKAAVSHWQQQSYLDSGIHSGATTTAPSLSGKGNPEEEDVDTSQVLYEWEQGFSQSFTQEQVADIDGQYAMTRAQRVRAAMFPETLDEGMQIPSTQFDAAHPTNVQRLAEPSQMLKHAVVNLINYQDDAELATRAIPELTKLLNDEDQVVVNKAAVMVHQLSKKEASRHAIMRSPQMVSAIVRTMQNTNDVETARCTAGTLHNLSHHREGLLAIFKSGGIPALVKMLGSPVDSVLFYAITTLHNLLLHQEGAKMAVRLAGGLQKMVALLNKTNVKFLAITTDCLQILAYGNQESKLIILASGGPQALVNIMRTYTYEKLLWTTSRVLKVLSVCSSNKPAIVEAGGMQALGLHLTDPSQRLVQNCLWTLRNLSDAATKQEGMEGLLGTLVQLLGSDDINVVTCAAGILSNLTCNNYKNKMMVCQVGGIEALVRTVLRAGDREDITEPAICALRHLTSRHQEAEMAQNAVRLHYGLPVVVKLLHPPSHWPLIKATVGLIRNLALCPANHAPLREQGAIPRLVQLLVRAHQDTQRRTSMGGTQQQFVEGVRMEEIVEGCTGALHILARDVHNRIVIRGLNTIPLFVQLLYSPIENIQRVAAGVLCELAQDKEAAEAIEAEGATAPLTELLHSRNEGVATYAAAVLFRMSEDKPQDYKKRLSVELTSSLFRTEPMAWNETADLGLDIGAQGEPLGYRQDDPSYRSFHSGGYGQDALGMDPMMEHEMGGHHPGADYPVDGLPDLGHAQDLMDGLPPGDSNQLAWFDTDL

CHI Log D procedure = assay type: physicochemical; details: for CHI Log D: pH 7.4; for chromatographic logD: pH 7.4, CHI Log D

CC(=O)N1CCC[C@]12CC=CCCCC1(CCCC=CCOC(=O)N(C)CCC[C@@](C)(C(=O)N[C@@H](Cc3ccsc3)C(=O)N[C@@H](Cc3csc4ccccc34)C(=O)N[C@@H](CCC(N)=O)C(N)=O)NC(=O)[C@H](CC(N)=O)NC(=O)[C@H](Cc3ccccc3)NC(=O)[C@H](C)NC(=O)[C@H](C)NC(=O)[C@H](CC(=O)O)NC(=O)[C@H](CC(=O)O)NC1=O)NC(=O)[C@H](CC(C)(C)C)NC(=O)[C@H](CC(=O)O)NC2=O (stereo partly drawn) [I-765, Ac-PL3-Asp-Npg-B5-Asp-Asp-Ala-Ala-Phe-Asn-SeN-3Thi-BztA-Gln-NH2]
Solubility (Solubility in PBS): 49 µM (≈ 94.1 µg/mL)
IC50 ([1]; read-out: FP EC50): 228 nM
IC50 ([1]; read-out: beta-Catenin FP IC50): 228 nM
CHI Log D (CHI Log D procedure): 1.71

CC(=O)N1CCC[C@]12CC=CCCCC1(CCCC=CCOC(=O)N(C)CCC[C@@](C)(C(=O)N[C@@H](Cc3ccsc3)C(=O)N[C@@H](Cc3csc4ccccc34)C(=O)N[C@@H](CCC(N)=O)C(N)=O)NC(=O)[C@H](CC(N)=O)NC(=O)[C@H](Cc3ccccc3)NC(=O)[C@H](C)NC(=O)[C@H](C)NC(=O)[C@H](CC(=O)O)NC(=O)[C@H](CC(=O)O)NC1=O)NC(=O)[C@H](CC(C)(C)C)NC(=O)[C@H](CC(=O)O)NC2=O (stereo partly drawn) [I-766, Ac-PL3-Asp-Npg-B5-Asp-Asp-Ala-Ala-Phe-Asn-SeN-3Thi-BztA-Gln-NH2]
Solubility (Solubility in PBS): 50 µM (≈ 96 µg/mL)
IC50 ([1]; read-out: FP EC50): 55 nM
IC50 ([1]; read-out: beta-Catenin FP IC50): 55 nM
CHI Log D (CHI Log D procedure): 1.853

CC(=O)N1CCC[C@]12CC=CCCCC1(CCCC=CCOC(=O)N(C)CCC[C@@](C)(C(=O)N[C@@H](Cc3ccsc3)C(=O)N[C@@H](Cc3csc4ccccc34)C(=O)N[C@@H](Cc3c[nH]cn3)C(N)=O)NC(=O)[C@H](CC(N)=O)NC(=O)[C@H](Cc3ccccc3)NC(=O)[C@H](C)NC(=O)[C@H](C)NC(=O)[C@H](CC(=O)O)NC(=O)[C@H](CC(=O)O)NC1=O)NC(=O)[C@H](CC(C)(C)C)NC(=O)[C@H](CC(=O)O)NC2=O (stereo partly drawn) [I-773, Ac-PL3-Asp-Npg-B5-Asp-Asp-Ala-Ala-Phe-Asn-SeN-3Thi-BztA-His-NH2]
Solubility (Solubility in PBS): 47 µM (≈ 90.7 µg/mL)
IC50 ([1]; read-out: FP EC50): 167 nM
IC50 ([1]; read-out: beta-Catenin FP IC50): 167 nM
CHI Log D (CHI Log D procedure): 1.76

CC(=O)N1CCC[C@]12CC=CCCCC1(CCCC=CCOC(=O)N(C)CCC[C@@](C)(C(=O)N[C@@H](Cc3ccsc3)C(=O)N[C@@H](Cc3csc4ccccc34)C(=O)N[C@@H](Cc3c[nH]cn3)C(N)=O)NC(=O)[C@H](CC(N)=O)NC(=O)[C@H](Cc3ccccc3)NC(=O)[C@H](C)NC(=O)[C@H](C)NC(=O)[C@H](CC(=O)O)NC(=O)[C@H](CC(=O)O)NC1=O)NC(=O)[C@H](CC(C)(C)C)NC(=O)[C@H](CC(=O)O)NC2=O (stereo partly drawn) [I-774, Ac-PL3-Asp-Npg-B5-Asp-Asp-Ala-Ala-Phe-Asn-SeN-3Thi-BztA-His-NH2]
Solubility (Solubility in PBS): 46 µM (≈ 88.7 µg/mL)
IC50 ([1]; read-out: FP EC50): 38 nM
IC50 ([1]; read-out: beta-Catenin FP IC50): 38 nM
CHI Log D (CHI Log D procedure): 1.928

CC(=O)N1CCC[C@]12CC=CCCCC1(CCCC=CCCCCOC(=O)N3CC[C@@](C(=O)N[C@@H](Cc4ccsc4)C(=O)N[C@@H](Cc4csc5ccccc45)C(=O)N[C@@H](Cc4c[nH]cn4)C(N)=O)(C3)NC(=O)[C@H](CC(N)=O)NC(=O)[C@H](Cc3ccccc3)NC(=O)[C@H](C)NC(=O)[C@H](C)NC(=O)[C@H](CC(=O)O)NC(=O)[C@H](CC(=O)O)NC1=O)NC(=O)[C@H](CC(C)(C)C)NC(=O)[C@H](CC(=O)O)NC2=O (stereo partly drawn) [I-776, Ac-PL3-Asp-Npg-B5-Asp-Asp-Ala-Ala-Phe-Asn-PyrS3-3Thi-BztA-His-NH2]
Solubility (Solubility in PBS): 41 µM (≈ 79.6 µg/mL)
IC50 ([1]; read-out: beta-Catenin FP IC50): 5 nM
CHI Log D (CHI Log D procedure): 2.137

CC(=O)N1CCC[C@]12CC=CCCCC1(CCCC=CCCCOC(=O)N3CC[C@@](C(=O)N[C@@H](Cc4cccs4)C(=O)N[C@@H](Cc4csc5ccccc45)C(=O)N[C@@H](Cc4c[nH]cn4)C(N)=O)(C3)NC(=O)[C@H](CC(N)=O)NC(=O)[C@H](Cc3ccccc3)NC(=O)[C@H](C)NC(=O)[C@H](C)NC(=O)[C@H](CC(=O)O)NC(=O)[C@H](CC(=O)O)NC1=O)NC(=O)[C@H](CC(C)(C)C)NC(=O)[C@H](CC(=O)O)NC2=O (stereo partly drawn) [I-779, Ac-PL3-Asp-Npg-B5-Asp-Asp-Ala-Ala-Phe-Asn-PyrS2-2Thi-BztA-His-NH2]
Solubility (Solubility in PBS; Solubility (uM)): 44 µM (≈ 84.8 µg/mL)
IC50 ([1]; read-out: beta-Catenin FP IC50): 5 nM
chromatographic logD (CHI Log D procedure): 2.12

CC(=O)N1CCC[C@]12CC=CCCCC1(CCCC=CCCCOC(=O)N3CC[C@@](C(=O)N[C@@H](Cc4ccsc4)C(=O)N[C@@H](Cc4csc5ccccc45)C(=O)N[C@@H](CCC(N)=O)C(N)=O)(C3)NC(=O)[C@H](CC(N)=O)NC(=O)[C@H](Cc3ccccc3)NC(=O)[C@H](C)NC(=O)[C@H](C)NC(=O)[C@H](CC(=O)O)NC(=O)[C@H](CC(=O)O)NC1=O)NC(=O)[C@H](CCC(C)C)NC(=O)[C@H](CC(=O)O)NC2=O (stereo partly drawn) [I-787, Ac-PL3-Asp-hLeu-B5-Asp-Asp-Ala-Ala-Phe-Asn-PyrS2-3Thi-BztA-Gln-NH2]
Solubility (Solubility in PBS): 50 µM (≈ 95.9 µg/mL)
IC50 ([1]; read-out: beta-Catenin FP IC50): 5 nM
chromatographic logD (CHI Log D procedure): 2.08

CC(=O)N1CCC[C@]12CC=CCCCC1(CCCC=CCCCOC(=O)N3CC[C@@](C(=O)N[C@@H](Cc4ccsc4)C(=O)N[C@@H](Cc4c[nH]c5ccc(Cl)cc45)C(=O)N[C@@H](Cc4c[nH]cn4)C(N)=O)(C3)NC(=O)[C@H](CC(N)=O)NC(=O)[C@H](Cc3ccccc3)NC(=O)[C@H](C)NC(=O)[C@H](C)NC(=O)[C@H](CC(=O)O)NC(=O)[C@H](CC(=O)O)NC1=O)NC(=O)[C@H](CC(C)(C)C)NC(=O)[C@H](CC(=O)O)NC2=O (stereo partly drawn) [I-791, Ac-PL3-Asp-Npg-B5-Asp-Asp-Ala-Ala-Phe-Asn-PyrS2-3Thi-5C1W-His-NH2]
Solubility (Solubility in PBS; Solubility (uM)): 48 µM (≈ 93.3 µg/mL)
IC50 ([1]; read-out: beta-Catenin FP IC50): 310 nM
chromatographic logD (CHI Log D procedure): 2.05

CC(=O)N1CCC[C@]12CC=CCCCC1(CCCC=CCCCOC(=O)N3CC[C@@](C(=O)N[C@@H](Cc4ccc5ccccc5c4)C(=O)N[C@@H](Cc4csc5ccccc45)C(=O)N[C@@H](Cc4c[nH]cn4)C(N)=O)(C3)NC(=O)[C@H](CC(N)=O)NC(=O)[C@H](Cc3ccccc3)NC(=O)[C@H](C)NC(=O)[C@H](C)NC(=O)[C@H](CC(=O)O)NC(=O)[C@H](CC(=O)O)NC1=O)NC(=O)[C@H](CC(C)(C)C)NC(=O)[C@H](CC(=O)O)NC2=O (stereo partly drawn) [I-795, Ac-PL3-Asp-Npg-B5-Asp-Asp-Ala-Ala-Phe-Asn-PyrS2-2NapA-BztA-His-NH2]
Solubility (Solubility in PBS): 10 µM (≈ 19.7 µg/mL)
IC50 ([1]; read-out: beta-Catenin FP IC50): 176 nM
chromatographic logD (CHI Log D procedure): 2.39

CC(=O)N1CCC[C@]12CC=CCCCC1(CCCC=CCCCOC(=O)N3CC[C@@](C(=O)N[C@@H](Cc4ccsc4)C(=O)N[C@@H](Cc4csc5ccccc45)C(=O)N[C@@H](Cc4c[nH]cn4)C(N)=O)(C3)NC(=O)[C@H](CC(N)=O)NC(=O)[C@H](CC(=O)O)NC(=O)[C@H](C)NC(=O)[C@H](C)NC(=O)[C@H](CC(=O)O)NC(=O)[C@H](CC(=O)O)NC1=O)NC(=O)[C@H](CC(C)(C)C)NC(=O)[C@H](Cc1ccccc1)NC2=O (stereo partly drawn) [I-796, Ac-PL3-Phe-Npg-B5-Asp-Asp-Ala-Ala-Asp-Asn-PyrS2-3Thi-BztA-His-NH2]
Solubility (Solubility in PBS; Solubility (uM)): 35 µM (≈ 67.5 µg/mL)
IC50 ([1]; read-out: FP EC50): 8140 nM
chromatographic logD (CHI Log D procedure): 2.45

CC(=O)N1CCC[C@]12CC=CCCCC1(CCCC=CCCCOC(=O)N3CC[C@@](C(=O)N[C@@H](Cc4ccsc4)C(=O)N[C@@H](Cc4csc5ccccc45)C(=O)N[C@@H](CCC(N)=O)C(N)=O)(C3)NC(=O)[C@H](CC(N)=O)NC(=O)[C@H](Cc3cscn3)NC(=O)[C@H](C)NC(=O)[C@H](C)NC(=O)[C@H](CC(=O)O)NC(=O)[C@H](CC(=O)O)NC1=O)NC(=O)[C@H](CC(C)(C)C)NC(=O)[C@H](CC(=O)O)NC2=O (stereo partly drawn) [I-812, Ac-PL3-Asp-Npg-B5-Asp-Asp-Ala-Ala-4Thz-Asn-PyrS2-3Thi-BztA-Gln-NH2]
Solubility (Solubility in PBS; Solubility (uM)): 47 µM (≈ 90.5 µg/mL)
IC50 ([1]; read-out: beta-Catenin FP IC50): 33 nM
chromatographic logD (CHI Log D procedure): 1.9

CC(=O)N1CCC[C@]12CC=CCCCC1(CCCC=CCCCCOC(=O)N3CC[C@@](C(=O)N[C@@H](Cc4ccsc4)C(=O)N[C@@H](Cc4csc5ccccc45)C(=O)N[C@@H](Cc4c[nH]cn4)C(=O)N[C@@H](C)C(N)=O)(C3)NC(=O)[C@H](CC(N)=O)NC(=O)[C@H](Cc3ccccc3)NC(=O)[C@H](C)NC(=O)[C@H](C)NC(=O)[C@H](CC(=O)O)NC(=O)[C@H](CC(=O)O)NC1=O)NC(=O)[C@H](CC(C)(C)C)NC(=O)[C@H](CC(=O)O)NC2=O (stereo partly drawn) [I-828, Ac-PL3-Asp-Npg-B5-Asp-Asp-Ala-Ala-Phe-Asn-PyrS3-3Thi-BztA-His-Ala-NH2]
Solubility (Solubility in PBS): 40 µM (≈ 80.5 µg/mL)
IC50 ([1]; fluorescence polarization, beta-catenin, read-out: FP EC50): 13 nM
IC50 ([1]; read-out: beta-Catenin FP IC50): 13 nM
CHI Log D (CHI Log D procedure): 2.137
